From patent US20180037903A1, “METHODS AND MEANS FOR INCREASING STRESS TOLERANCE AND BIOMASS IN PLANTS” (THE UNIVERSITY COURT OF THE UNIVERSITY OF GLASGOW, priority 2013, published 2018) come the findings set out here.

T1: cYFP-HDA6 (C-terminal half of YFP fused to A. thaliana HISTONE DEACETYLASE 6) (Arabidopsis thaliana, UniProt Q9FML2 1-471)
T1 construct: expressed transiently in tobacco leaf cells; not shown: C-terminal half of YFP (cYFP) from vector pBiFCt-2in1-NN
T1 sequence (looked up): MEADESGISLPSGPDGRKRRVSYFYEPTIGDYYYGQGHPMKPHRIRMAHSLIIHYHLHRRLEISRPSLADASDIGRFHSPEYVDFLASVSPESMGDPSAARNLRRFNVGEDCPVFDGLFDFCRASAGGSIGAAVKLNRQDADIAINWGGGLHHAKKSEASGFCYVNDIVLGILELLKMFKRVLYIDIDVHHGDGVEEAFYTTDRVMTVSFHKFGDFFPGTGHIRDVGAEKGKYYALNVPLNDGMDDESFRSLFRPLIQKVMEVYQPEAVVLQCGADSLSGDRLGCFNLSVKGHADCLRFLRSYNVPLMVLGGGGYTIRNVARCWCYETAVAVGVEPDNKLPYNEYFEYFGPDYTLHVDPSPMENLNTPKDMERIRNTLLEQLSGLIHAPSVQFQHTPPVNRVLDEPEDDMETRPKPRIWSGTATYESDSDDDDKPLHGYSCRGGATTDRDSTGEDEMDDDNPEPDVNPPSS

B1: cYFP-HDA19 (C-terminal half of YFP fused to A. thaliana HISTONE DEACETYLASE 19) (enzyme, Arabidopsis thaliana, UniProt O22446 1-501, looked up)
chain: MDTGGNSLASGPDGVKRKVCYFYDPEVGNYYYGQGHPMKPHRIRMTHALLAHYGLLQHMQVLKPFPARDRDLCRFHADDYVSFLRSITPETQQDQIRQLKRFNVGEDCPVFDGLYSFCQTYAGGSVGGSVKLNHGLCDIAINWAGGLHHAKKCEASGFCYVNDIVLAILELLKQHERVLYVDIDIHHGDGVEEAFYATDRVMTVSFHKFGDYFPGTGHIQDIGYGSGKYYSLNVPLDDGIDDESYHLLFKPIMGKVMEIFRPGAVVLQCGADSLSGDRLGCFNLSIKGHAECVKFMRSFNVPLLLLGGGGYTIRNVARCWCYETGVALGVEVEDKMPEHEYYEYFGPDYTLHVAPSNMENKNSRQMLEEIRNDLLHNLSKLQHAPSVPFQERPPDTETPEVDEDQEDGDKRWDPDSDMDVDDDRKPIPSRVKREAVEPDTKDKDGLKGIMERGKGCEVEVDESGSTKVTGVNPVGVEEASVKMEEEGTNKGGAEQAFPPKT
notes: expressed transiently in tobacco leaf cells; not shown: C-terminal half of YFP (cYFP) from vector pBiFCt-2in1-NN
B2: nYFP-HDC1 (N-terminal half of YFP fused to full length A. thaliana HISTONE DEACETYLASE COMPLEX 1) (other)
chain: MSGVPKRSHEEGVTHPSSSSSVAKYPHEDSGSYPKSPHQPVTPPPAQVHHNHQQPHQHPQSQSQSQPQPHLQALPHPHSHSHSHSPLAAAASASAPYEVESRTVVKVARSEPRDGERRSPLPLVYRSPSLPTTVSSSDPHLTHAPVPMEPRDGAKDGREIRVESRENRSDGREIYGETKREIQGPKGDRDVKFERSVDDFSGKGNTGSYTRNDGREMYGETKREIQGPKSDRDAKFERPGDDFSGKSNAGSYTRDTKFDRENQNYNEQKGEIKMEKEGHAHLAWKEQKDYHRGKRVAEGSTANVDPWVVSRGNPQGPTEVGPKDLSAPVEGSHLEGRETVGENKVDAKNEDRFKEKDKKRKELKHREWGDRDKDRNDRRVSVLVGSVMSEPKEIGREERESDRWERERMEQKDRERNKEKDKDHIKREPRTGAEKEISQNEKELGEASAKPSEQEYVAPEQKKQNEPDNCEKDERETKEKRRERDGDSEAERAEKRSRISEKESEDGCLEGEGATEREKDAFNYGVQQRKRALRPRGSPQTTNRDNVRSRSQDNEGVQGKSEVSIVVYKVGECMQELIKLWKEYDLSHPDKSGDFANNGPTLEVRIPAEHVTATNRQVRGGQLWGTDIYTDDSDLVAVLMHTGYCRPTASPPPPTMQELRTTIRVLPSQDYYTSKLRNNVRSRAWGAGIGCSYRVERCYILKKGGGTIELEPSLTHSSTVEPTLAPMAVERSMTTRAAASNALRQQRFVREVTIQYNLCNEPWIKYSISIVADKGLKKPLFTSARLKKGEVLYLETHSCRYELCFAGEKTIKAIQASQQQSSHEAMETDNNNNKSQNHLTNGDKTDSDNSLIDVFRWSRCKKPLPQKLMRSIGFPLPADHIEVLEENLDWEDVQWSQTGVWIAGKEYTLARVHFLSPN
notes: Expressed transiently in tobacco leaf cells from a 2-in-1 BiFC vector together with the cYFP partner and a full-length RFP; not shown: N-terminal half of YFP (nYFP) from vector pBiFCt-2in1-NN

The test system of one series is A. thaliana seeds. Description: Germination assay on agar plates (seedlings with green cotyledons on day 6 after sowing). Particulars: for cumulative germination rate: increasing concentrations in agar, all lines (wildtype, hdc1-1, HDC1-OX), scored after 6 days. It counts as in vivo, Arabidopsis thaliana. As for the experimental part: (§1) All experiments were carried out in controlled growth rooms at a temperature of 20-22° C. and a light intensity of 120-150 μmol PAR. Plants were grown either in long days (16 h light) or in short days (10 h light) as indicated in text and figure legends. Seeds of A. thaliana wildtype and transgenic lines were sterilized, stratified and germinated on soil or on agar plates. Agar plates contained half strength Murashige & Skoog (MS) media with 1% sucrose and 0.8% agar at pH 5.7. For germination assays media were supplemented with NaCl, ABA (cat. A1049,SIGMA), PAC (Fluka cat. 46046) or TSA (SIGMA cat.T8852) at the concentrations given in the figures. Germination rate was scored on day 6 after sowing by counting seedlings that had developed green cotyledons. Experiments with adult plants were carried out on soil or in hydroponic culture. For the latter, seeds were germinated on agar plates and 2-3 weeks old seedlings were placed perforated lids of black 1-litre plastic containers. The growth medium consisted in a minimal sufficient nutrient medium (Kellermeier et al., 2013, PLoS Genet. 7). For salt treatment NaCl powder was stirred directly into the growth container to obtain the desired concentration (as stated in the figures). Control media were stirred without adding NaCl. For controlled drought experiments, plants were grown on soil in pots according to a randomized design. Using previously reported methodology (Granier et al., 2006, New Phytologist 169:623-635; Skirycz et al., 2011, Nat. Biotech. 29:212-214), controlled watering was used to impose moderate water stress. After 14 days of plant growth in well-watered soil, watering was reduced so that the relative soil water content of the stressed plants was maintained at 50% of the normal watering regime. Control plants were watered normally.
Germinating seeds arrest growth and development if they encounter low water potentials in the environment (Finkelstein et al., 2008, In Annual Review of Plant Biology (Palo Alto: Annual Reviews), pp. 387-415). The post-imbibition response is mediated by ABA and can be mimicked by external application of ABA. […] To test a function of HDC1 in this process seeds of A. thaliana wildtype, hdc1-1, and HDC1-0X lines were imbibed to break dormancy, and subsequently plated out on agar plates containing different concentrations of NaCl, mannitol, ABA or PAC. A cumulative germination rate (encompassing all post-imbibition stages of seedling development) was scored as the number of seedlings that had developed cotyledons after 6 days.
To test whether histone deactylation was required for ABA-dependence of seed germination and for the effect of HDC1 on this process, we subjected germinating seeds to the histone deacetylase inhibitor trichostatin A (TSA).

The next series has as its system A. thaliana plants. As for the experimental part: as §1
The target in series [1] is T2, nYFP-SIN3 (N-terminal half of YFP fused to A. thaliana Sin3-like protein 3) (Arabidopsis thaliana, UniProt O48686 1-1330).
T2 construct: positive control partner for cYFP-HDA19; also called AtSin3; SNL3; not shown: N-terminal half of YFP (nYFP) from vector pBiFCt-2in1-NN
Description: ratiometric BiFC in tobacco leaf cells (nYFP-SIN3 with cYFP-HDA19).

Series [2] addresses T1, cYFP-HDA6 (C-terminal half of YFP fused …). Briefly: ratiometric BiFC in tobacco leaf cells (nYFP-HDC1 with cYFP-HDA6). The procedure: (§2) Fluorescence in tobacco epidermal cells was assessed two days post infiltration using a CLSM-510-META-UV confocal microscope (Zeiss, Jena). For single protein localization GFP fluorescence was excited at 488 nm with light from an Argon laser and collected after passage through an NFT545 dichroic mirror with a 505 nm long pass filter. For co-localization experiments GFP fluorescence was collected with a 505-530 band pass filter. RFP fluorescence was excited at 543 nm with light from a Helium Neon laser and was collected after passage through an NFT545 dichroic mirror and a 560-615 nm band pass filter. YFP fluorescence was excited at 514 nm with light from Argon laser and was collected using lambda mode between 520-550 nm. Co-localization plane and line scans were evaluated using Zeiss LSM 510 AIM software (v3.2).
(§3) To investigate whether HDC1 is a member of HDAC protein complexes in plants we tested co-localization and direct interaction of HDC1 with known HDACs of A. thaliana. […] Direct interaction was investigated by bimolecular fluorescence complementation (BiFC). To avoid misinterpretation of background fluorescence we used a new ratiometric BiFC assay (Grefen and Blatt, 2012, supra) in which N- and C-terminal halves of yellow fluorescent protein (YFP), fused to HDC1 and HDA6/19 respectively, and a full-length RFP, are expressed from a single vector FIG. 4A). […]

Series [3] deals with B1. Briefly: ratiometric BiFC in tobacco leaf cells (nYFP-HDC1 with cYFP-HDA19). The procedure: as §2, §3
In series [4] the target is T3, cYFP-SIN3 (C-terminal half of YFP fused to A. thaliana Sin3-like protein 3) (Arabidopsis thaliana, UniProt O48686 1-1330).
T3 construct: negative control partner for nYFP-HDC1; also called AtSin3; SNL3; not shown: C-terminal half of YFP (cYFP) from vector pBiFCt-2in1-NN
Briefly: ratiometric BiFC in tobacco leaf cells (nYFP-HDC1 with cYFP-SIN3).

[5] abbreviates: 150 mM NaCl for 24 hours, all lines.

T2 sequence (O48686 whole entry, the tested form may be a part): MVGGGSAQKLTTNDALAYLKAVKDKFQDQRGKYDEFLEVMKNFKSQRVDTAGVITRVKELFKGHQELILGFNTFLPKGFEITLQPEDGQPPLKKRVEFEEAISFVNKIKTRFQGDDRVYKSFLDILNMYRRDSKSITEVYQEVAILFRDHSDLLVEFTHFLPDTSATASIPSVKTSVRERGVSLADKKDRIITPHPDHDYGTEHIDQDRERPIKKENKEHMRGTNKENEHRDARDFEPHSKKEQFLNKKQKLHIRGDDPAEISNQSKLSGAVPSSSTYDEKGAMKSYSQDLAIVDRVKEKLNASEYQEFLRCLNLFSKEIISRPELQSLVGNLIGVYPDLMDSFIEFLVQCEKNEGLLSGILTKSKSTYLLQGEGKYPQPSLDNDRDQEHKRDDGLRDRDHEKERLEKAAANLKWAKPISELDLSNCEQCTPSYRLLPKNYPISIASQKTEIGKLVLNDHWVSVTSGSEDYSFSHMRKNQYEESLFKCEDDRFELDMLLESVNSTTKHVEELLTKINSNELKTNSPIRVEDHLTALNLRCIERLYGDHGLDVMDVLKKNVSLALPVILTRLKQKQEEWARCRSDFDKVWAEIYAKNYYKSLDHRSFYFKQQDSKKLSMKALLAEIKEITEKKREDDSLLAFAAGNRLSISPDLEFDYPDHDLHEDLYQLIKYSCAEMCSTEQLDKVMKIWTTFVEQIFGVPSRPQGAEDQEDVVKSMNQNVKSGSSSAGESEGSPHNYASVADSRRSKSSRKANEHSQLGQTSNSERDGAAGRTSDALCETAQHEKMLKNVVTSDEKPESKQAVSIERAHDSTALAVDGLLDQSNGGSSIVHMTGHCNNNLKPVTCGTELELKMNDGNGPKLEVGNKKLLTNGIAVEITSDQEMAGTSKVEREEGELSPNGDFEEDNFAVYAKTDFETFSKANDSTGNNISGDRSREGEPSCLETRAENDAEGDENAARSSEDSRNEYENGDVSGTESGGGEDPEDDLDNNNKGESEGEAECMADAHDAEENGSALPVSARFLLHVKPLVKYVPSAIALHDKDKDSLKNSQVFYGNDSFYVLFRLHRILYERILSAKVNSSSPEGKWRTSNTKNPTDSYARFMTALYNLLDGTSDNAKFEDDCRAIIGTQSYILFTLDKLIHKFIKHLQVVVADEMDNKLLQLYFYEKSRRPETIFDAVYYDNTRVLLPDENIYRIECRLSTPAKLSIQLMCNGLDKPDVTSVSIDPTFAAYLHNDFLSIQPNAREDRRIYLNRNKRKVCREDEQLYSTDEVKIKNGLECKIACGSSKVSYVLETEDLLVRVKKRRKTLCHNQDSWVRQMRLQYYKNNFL
T3 sequence (O48686 whole entry, the tested form may be a part): as above

In the case of `CC(/C=C/C(=O)NO)=C\[C@@H](C)C(=O)c1ccc(N(C)C)cc1` [TSA, trichostatin A], the “effect on ABA-sensitivity of germination” value in the series on A. thaliana seeds (HDC1-overexpressing lines) was “increased ABA-sensitivity”; with A. thaliana seeds (wildtype plants, 0.3 μM TSA at 0.2 μM ABA), “significant effect”; in the series on A. thaliana seeds (wildtype plants, 3 μM TSA at 0.4 μM ABA), “significant effect”; with A. thaliana seeds (wildtype plants, dose-dependent), “increased the ABA-sensitivity”. Further, in the series with A. thaliana seeds (low-micromolar TSA (0.3 or 3 μM), in the absence of ABA), the “effect on seed germination” value is given as “no effect on seed germination”.
As to `OC[C@@H](O)[C@@H](O)[C@H](O)[C@H](O)CO` [mannitol], the cumulative germination rate entry with A. thaliana seeds is “decrease in germination rates”.
The same measure, in the same setting: with `CC1=CC(=O)CC(C)(C)[C@@]1(O)/C=C/C(C)=C\C(=O)O` [ABA, Abscisic acid] the entry was “decrease in germination rates”.
Consider `[Cl-].[Na+]` [NaCl], for which, in the series on A. thaliana seeds, the cumulative germination rate entry is reported as “decrease in germination rates”. The chlorosis or desiccation result in the series on A. thaliana plants (80 mM NaCl, 6 days) is reported as “did not produce severe chlorosis or desiccation”. For the same molecule, the growth result in the series with A. thaliana plants (80 mM NaCl, 6 days, all lines) was “slowed growth”. Besides, in the series with A. thaliana plants (80 mM NaCl, after 6 days, all lines, from 92±1% without salt), the shoot water content is 86±1%. In the series with A. thaliana plants (setting [5]), the “ABA biosynthesis (shoot ABA levels)” value is listed as “efficiently induced”; the “transcript levels of ABA-receptor PYL4 and 'drought-repressed' gene DR4” value is “efficiently repressed”.
On to `CC(C)(C)[C@@H](O)[C@@H](Cc1ccc(Cl)cc1)n1cncn1` (racemic) [PAC, paclobutrazol], for which the cumulative germination rate entry in the series on A. thaliana seeds is recorded as “decrease in germination rates”.
Regarding B1, the binding result in series [1] is “binds”.
As for B2, the results for the binding result in series [2], in series [3] and in series [4] were “binds”, “binds” and “no binding”, respectively.
